melting point [°C] | Compound
143 to 145 | Cn1cc(-c2ccnc(Nc3cccc(CCN4CCOCC4)c3)n2)c(-c2ccc(NC(=O)NC3CC3)cc2)n1 [Example 55, N-cyclopropyl-N′-(4-{1-methyl-4-[2-({3-[2-(4-morpholinyl)ethyl]phenyl}amino)-4-pyrimidinyl]-1H-pyrazol-3-yl}phenyl)urea]
228 to 230 | Cn1ncc(-c2ccnc(Nc3cccc(CCN4CCOCC4)c3)n2)c1-c1ccc(NC(=O)N2CCCC2)cc1 [Example 56, N-(4-{1-methyl-4-[2-({3-[2-(4-morpholinyl)ethyl]phenyl}amino)-4-pyrimidinyl]-1H-pyrazol-5-yl}phenyl)-1-pyrrolidinecarboxamide]
139 to 141 | CCNC(=O)Nc1ccc(-c2nn(C)cc2-c2ccnc(Nc3cccc(CCN4CCOCC4)c3)n2)cc1 [Example 61, N-ethyl-N′-(4-{1-methyl-4-[2-({3-[2-(4-morpholinyl)ethyl]phenyl}amino)-4-pyrimidinyl]-1H-pyrazol-3-yl}phenyl)urea]

Further lines, the compound ahead of its results:

Compound | melting point [°C]
O=C(Nc1ccc(-c2nn(CCO)cc2-c2ccnc(Nc3cccc(F)c3)n2)cc1)N1CCCC1 [Example 54, N-{4-[4-{2-[(3-fluorophenyl)amino]-4-pyrimidinyl}-1-(2-hydroxyethyl)-1H-pyrazol-3-yl]phenyl}-1-pyrrolidinecarboxamide] | 185 to 186
CN(C)C(=O)Nc1ccc(-c2nn(C)cc2-c2ccnc(Nc3cccc(CCN4CCOCC4)c3)n2)cc1 [Example 65, N,N-dimethyl-N′-(4-{1-methyl-4-[2-({3-[2-(4-morpholinyl)ethyl]phenyl}amino)-4-pyrimidinyl]-1H-pyrazol-3-yl}phenyl)urea] | 132 to 134
O=C(Nc1ccc(-c2nn(CCN3CCOCC3)cc2-c2ccnc(Nc3cccc(F)c3)n2)cc1)N1CCCC1 [Example 84, N-(4-{4-[2-{(3-fluorophenyl)amino]-4-pyrimidinyl}-1-[2-(4-morpholinyl)ethyl]-1H-pyrazol-3-yl}phenyl)-1-pyrrolidinecarboxamide] | 167 to 168
